Where a name gives a salt, the structure may show the parent alone.
Assays:
hearing loss = experiment: Case report: hearing loss / audiogram in patient treated with sildenafil citrate; format: in vivo, human
Excerpt: A person suffering for several years from severe tinnitus and hearing loss in their right ear had repeatedly sought medical advice and tried many alleged therapies for their tinnitus, none of which was effective. […] Other than that they are in good health and receives no medications. Recently they were prescribed sildenafil citrate for improving their sexual performance. […] For instance, at frequencies of 500-1000 Hz, hearing in their right ear improved from 50-55 dB to 30 dB.

tinnitus = experiment: Case reports: tinnitus in patients treated with sildenafil citrate; format: in vivo, human
Excerpt: A person suffering for several years from severe tinnitus and hearing loss in their right ear had repeatedly sought medical advice and tried many alleged therapies for their tinnitus, none of which was effective. […] Other than that they are in good health and receives no medications. Recently they were prescribed sildenafil citrate for improving their sexual performance. […] A person known to have bilateral tinnitus and hearing loss for more than 20 years. Other than hypertension, for which they are treated, they are in good health. They were prescribed sildenafil citrate, 25 mg daily, for the tinnitus.

[1] = patients suffering from tinnitus

| SMILES | audiogram (overall) (hearing loss; Example 1: after several months treatment) | hearing in right ear after treatment (audiogram) (hearing loss; Example 1: frequencies of 500-1000 Hz, after several months treatment, improved from 50-55 dB before treatment) | hearing (patient report) (hearing loss; Example 1: person, hearing loss in right ear, on continued treatment) | effect on tinnitus (tinnitus; Example 1: person, severe tinnitus in right ear, first course of sildenafil citrate) | tinnitus status on continued treatment (tinnitus; Example 1: person, continues on sildenafil citrate) | return of the tinnitus after cessation of the medication (tinnitus; Example 1: person, intentional stop of the medication) | severity of tinnitus on rechallenge (tinnitus; Example 1: person, rechallenge 25 mg twice weekly) | effect on tinnitus (tinnitus; Example 2: person, bilateral tinnitus, 25 mg daily, starting after the 5th daily dose, persisted as long as drug taken) | effect on hearing loss (general statement) (hearing loss; [1]) | effect on tinnitus (general statement) (tinnitus; [1]) |
| --- | --- | --- | --- | --- | --- | --- | --- | --- | --- | --- |
| CCCc1nn(C)c2c(=O)[nH]c(-c3cc(S(=O)(=O)N4CCN(C)CC4)ccc3OCC)nc12 [sildenafil citrate, 1-[[3-(6,7-dihydro-1-methyl-7-oxo-3-propyl-1H-pyrazolo [4,3-d]pyrimidin-5-yl)-4-ethoxyphenyl]sulfonyl]4-methylpiperazine citrate] | marked improvement | 30 dB | significant improvement in their hearing | amelioration of the tinnitus, which eventually nearly disappeared | practically tinnitus-free | 2-3 weeks | reduced the severity of tinnitus within a week and proceeded to almost complete disappearance of the symptom | marked reduction in their tinnitus |  |  |
| CCCc1nn(C)c2c(=O)[nH]c(-c3cc(S(=O)(=O)N4CCN(C)CC4)ccc3OCC)nc12 [sildenafil] |  |  |  |  |  |  |  |  | ameliorating hearing loss | effective in reducing tinnitus |

Reference: patent publication US6693107B1, “Pharmaceutical composition useful for the treatment of tinnitus and hearing loss” (priority 1999, dated 2004)
